Assay results as given in PubChem BioAssay (NCI).
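Results reflect a 48-hour exposure of cells in 96-well plates to compound at five concentrations. GI50 = concentration required for 50% inhibition of growth. At the TGI there is no net growth.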

Experiments:
Assay in all cases: DTP human tumour cell line panel, 48 h
[1] = system: HCT-15 colon
[2] = system: HCC-2998 colon
[3] = system: SF-295 CNS
[4] = system: NCI-H23 lung
[5] = system: PC-3 prostate
[6] = system: UACC-62 melanoma
[7] = system: TK-10 renal
[8] = system: NCI-H460 lung
[9] = system: OVCAR-4 ovarian
[10] = system: HL-60(TB) leukemia

Compound | GI50 [1] | TGI [1] | GI50 [2] | TGI [2] | GI50 [3] | TGI [3] | GI50 [4] | TGI [4] | GI50 [5] | TGI [5] | GI50 [6] | TGI [6] | GI50 [7] | TGI [7] | GI50 [8] | TGI [8] | GI50 [9] | TGI [9] | GI50 [10] | TGI [10]
Cc1cc(=O)oc2cc(OCCn3c(C)nn(-c4ccc(Cl)cc4)c3=O)ccc12 | 3.2 µM | > 100 µM | 3.59 µM | > 100 µM | 4.73 µM | > 100 µM | 2.83 µM | > 100 µM | 8.13 µM | > 100 µM | 1.99 µM | > 100 µM | 13.4 µM | 88.4 µM | 2.8 µM | > 100 µM | – | – | – | –
O=c1oc2ccc(F)cc2c(=O)n1-c1ccc(Br)cc1F | 1.29 µM | 10.9 µM | 2.9 µM | 10.8 µM | 1.82 µM | 3.63 µM | 0.481 µM | – | 1.52 µM | 7.42 µM | 0.284 µM | 1.16 µM | 4.22 µM | 18 µM | 0.574 µM | 23.7 µM | 1.27 µM | > 42.8 µM | – | –
NC(N)=N/N=C/c1c(-c2ccc(Cl)c([N+](=O)[O-])c2)nc2n1CCS2 | 23.1 µM | 67.3 µM | – | – | 7 µM | 20.8 µM | 14.3 µM | 27.3 µM | 2.93 µM | 15.1 µM | 1.64 µM | 3.64 µM | – | – | 11.6 µM | > 100 µM | 14.7 µM | 32.8 µM | 2.34 µM | 6.27 µM
C/C(=N/NC(=O)CC(=O)N(C(=O)c1ccccc1Cl)c1ccc(C)cc1)c1cc2ccccc2oc1=O | – | > 100 µM | – | > 100 µM | – | > 100 µM | – | > 100 µM | – | – | – | > 100 µM | – | > 100 µM | – | > 100 µM | – | > 100 µM | – | > 100 µM
CC1(C)C2CCC13C(=O)C1OC3(C2)C2C(=O)c3c(O)cccc3C(=O)C12 (configuration not stated) | 0.362 µM | 0.905 µM | 1.94 µM | 4.16 µM | 0.156 µM | 0.442 µM | 2.24 µM | 6.55 µM | 0.835 µM | 3.09 µM | 0.2 µM | 0.403 µM | 0.979 µM | 2.83 µM | 3.75 µM | 21.2 µM | – | – | 0.355 µM | 1.2 µM
C=CC1=CC(C)C[C@]1(O)C(=O)OC (some centres not stated) | – | > 100 µM | > 100 µM | – | > 100 µM | – | > 100 µM | – | – | – | > 100 µM | – | > 100 µM | – | > 100 µM | – | > 100 µM | – | > 100 µM | –
O=c1[nH]c2cc(Cl)c(Cl)cc2n2cc3ccccc3c12 | 16.6 µM | 30.2 µM | 0.813 µM | 18.6 µM | 16.2 µM | 29.9 µM | 17.2 µM | 30.9 µM | 17.3 µM | 31.1 µM | 16.5 µM | 30.1 µM | 16.8 µM | 30.4 µM | 18.8 µM | 32.8 µM | 20.3 µM | 49.8 µM | – | –
c1cnc2[nH]cc(-c3csc(-c4cn(CCCN5CCCCC5)c5ccccc45)n3)c2c1 | 1.72 µM | 3.18 µM | – | – | 1.65 µM | 3.18 µM | – | – | 1.59 µM | 3.05 µM | 1.7 µM | 3.3 µM | 2.22 µM | 3.79 µM | – | – | 1.82 µM | 4.19 µM | 1.88 µM | 3.74 µM
